One experiment has as its system C. albicans. Conditions: clinical strain; cited from earlier work.
The subject of a further experiment is C. parapsilopsis. The conditions noted are these: C. parapsilosis, clinical strain; cited from earlier work.
The next experiment deals with C. glabrata. The conditions noted are these: clinical strain; cited from earlier work.
For another experiment, the system named is C. tropicalis. The conditions noted are these: clinical strain; cited from earlier work.
The next experiment deals with C. lusitaniae. Conditions: clinical strain; cited from earlier work.
For the next experiment, the system named is C. guilliermondii. Conditions: C. guillermondii, clinical strain; cited from earlier work.
Another experiment concerns A. niger. The conditions noted are these: clinical strain; cited from earlier work.
The next experiment relates to A. fumigatus. The conditions noted are these: clinical strain; cited from earlier work.
The subject of the next experiment is A. flavus. Conditions: clinical strain; cited from earlier work.
Another experiment has as its system A. terreus. The conditions noted are these: clinical strain; cited from earlier work.
A further experiment deals with C. Krusei. Conditions: clinical strain; cited from earlier work.
The next experiment deals with N. carnea. Kind of experiment: Kirby-Bauer disk diffusion susceptibility test. It counts as cell-based, Nocardia carnea. Here is the method: (§1) Bacterial strains, from clinical origin, were supplied by the National Center for Microbiology, Institute of Health Carlos III (Majadahonda, Madrid). They are detailed in Table I.
(§2) Bacterial cells suspension in sterile saline was prepared from a culture of 24-72 h, depending on bacterial species, in Mueller-Hinton Agar with 5% sheep blood. Each suspension was adjusted to a fixed size inoculum of 1-5×10^8 CFU/ml with a spectrophotometer (Ferraro, M J National Committee for Clinical Laboratory Standards. 2000).
(§3) Kirby-Bauer disk diffusion susceptibility test protocol was utilized to determine the sensitivity or resistance of pathogenic bacteria against the compounds and others antibiotics. The absence of growth around the disks is an indirect measure of the ability of this compound to inhibit an organism (Kirby, W. et al., Antibiotics Annu. 1956-1957:892). After 18 to 72 hours of incubation at […], with or without CO2, under aerobic or anaerobic conditions, depending on the bacterial species, halo of growth inhibition were obtained and evaluated.
(§4) Interpretation of susceptibility and resistance was based on the presence or absence of a zone of inhibition surrounding the disk. Kirby-Bauer disk diffusion susceptibility test is a common method which uses antibiotic-impregnated wafers to test whether bacteria are affected by antibiotics. The size of the zone of inhibition depends on how effective the antibiotic is at stopping the growth of the bacterium. A stronger antibiotic will create a larger zone, because a lower concentration of the antibiotic is enough to stop growth.

The next experiment concerns T. pulmonis. The experiment can be described thus: Kirby-Bauer disk diffusion susceptibility test. It counts as cell-based, Tsukamurella pulmonis. As to the method: as §1, §2, §3, §4
(In general: Agar diffusion results depend on both activity and mobility in agar.)

In the next experiment the test system is M. abscessus. Kind of experiment: Kirby-Bauer disk diffusion susceptibility test. The experiment is classed as cell-based, Mycobacterium abscessus. The conditions noted are these: M. abscessus strain 690, isolation year 2012. As to the method: as §1, §2, §3, §4
A further experiment concerns E. coli. The experiment can be described thus: Kirby-Bauer disk diffusion susceptibility test. It counts as cell-based. As to the method: as §1, §2, §3, §4
Another experiment concerns M. chelonae. The experiment can be described thus: Kirby-Bauer disk diffusion susceptibility test. The experiment is classed as cell-based. Conditions: M. chelonae strain 870, isolation year 2011. As to the method: as §1, §2, §3, §4
For a further experiment, the system named is M. fortuitum. Kind of experiment: Kirby-Bauer disk diffusion susceptibility test. It counts as cell-based. Conditions: M. fortuitum strain 1080, isolation year 2011. Here is the method: as §1, §2, §3, §4
The next experiment has as its system N. cyriacigeorgica. The experiment can be described thus: Kirby-Bauer disk diffusion susceptibility test. The experiment is classed as cell-based. As to the method:
as §1, §2, §3, §4

The next experiment relates to S. aureus. The experiment can be described thus: Kirby-Bauer disk diffusion susceptibility test. The experiment is classed as cell-based. As to the method:
as §1, §2, §3, §4

The test system of a further experiment is S. epidermidis. Kind of experiment: Kirby-Bauer disk diffusion susceptibility test. It counts as cell-based. As to the method: as §1, §2, §3, §4
In the next experiment the test system is B. cereus. Kind of experiment: Kirby-Bauer disk diffusion susceptibility test. The experiment is classed as cell-based, Bacillus cereus. As to the method: as §1, §2, §3, §4
The subject of a further experiment is A. baumannii. Kind of experiment: Kirby-Bauer disk diffusion susceptibility test. It counts as cell-based. Here is the method:
as §1, §2, §3, §4

In the next experiment the test system is P. aeruginosa. The experiment can be described thus: Kirby-Bauer disk diffusion susceptibility test. It counts as cell-based. Conditions: P. aeruginosa strain 96, isolation year 2014. As to the method:
as §1, §2, §3, §4

A further experiment relates to E. faecalis. The experiment can be described thus: Kirby-Bauer disk diffusion susceptibility test. It counts as cell-based. Here is the method:
as §1, §2, §3, §4

The test system of another experiment is E. faecium. The experiment can be described thus: Kirby-Bauer disk diffusion susceptibility test. It counts as cell-based. As to the method:
as §1, §2, §3, §4

Where [1] appears, read: N. carnea strain 40, isolation year 2011.
Setting [2] is: N. carnea strain 769, isolation year 2009.
Setting [3] is: T. pulmonis strain 40, isolation year 2015.
Setting [4] is: T. pulmonis strain 1991, isolation year 2009.
The mark [5] stands for this setting: E. coli strain 29, isolation year 2012.
Where [6] appears, read: E. coli strain 305, isolation year 2008.
Setting [7] is: N cyriacigeorgica strain 199, isolation year 2005.
The mark [8] stands for this setting: N. cyriacigeorgica strain 30, isolation year 2005.
[9] abbreviates: B. cereus strain 25, isolation year 2014.
The mark [10] stands for this setting: B. cereus strain 182, isolation year 2013.
Also: key: I = intermediate activity; S = susceptibility; R = Resistance.

`C[C@@H]1[C@H](O)[C@@H](C)/C=C/C=C/C=C/C=C/C=C/C=C/C=C/[C@H](O[C@@H]2O[C@H](C)[C@@H](O)[C@H](N)[C@@H]2O)C[C@@H]2O[C@](O)(C[C@@H](O)C[C@@H](O)[C@H](O)CC[C@@H](O)C[C@@H](O)CC(=O)O[C@H]1C)C[C@H](O)[C@H]2C(=O)O` [Amphotericin B]: the “Characteristics of the strains: susceptibility to the antifungal” value (shortened to “Characteristics of the strains”) with C. albicans is listed as “I”; in the experiment on C. parapsilopsis, “S”; in the experiment on C. glabrata, “S”; in the experiment with C. tropicalis, “S”; in the experiment with C. lusitaniae, “I”; in the experiment with C. guilliermondii, “R”. Also, the “Characteristics of the strains” value is listed as “S” in the experiment on A. niger; “S” in the experiment with A. fumigatus; “I” in the experiment with A. flavus; “I” in the experiment on A. terreus; “I” in the experiment with C. Krusei.

In the case of `Clc1ccccc1C(c1ccccc1)(c1ccccc1)n1ccnc1` [Clotrimazole], the “Characteristics of the strains” value in the experiment on C. albicans is on record as “S”; with C. parapsilopsis, “S”; with C. glabrata, “S”; with C. tropicalis, “S”; in the experiment on C. lusitaniae, “S”; in the experiment with C. guilliermondii, “R”. Moreover, the “Characteristics of the strains” value in the experiment with A. niger, with A. fumigatus, in the experiment with A. flavus, with A. terreus and in the experiment with C. Krusei was “S” each time.

Take `CC[C@H]1OC(=O)[C@H](C)[C@@H](O[C@H]2C[C@@](C)(OC)[C@@H](O)[C@H](C)O2)[C@H](C)[C@@H](O[C@@H]2O[C@H](C)C[C@H](N(C)C)[C@H]2O)[C@](C)(O)C[C@@H](C)C(=O)[C@H](C)[C@@H](O)[C@]1(C)O` [ERI, Erythromycin]: the “Sensitivity or resistance of the strain to the antibiotic” value (“Sensitivity or resistance of the strain” for short) in the experiment on N. carnea (setting [1]) is “R”; with N. carnea (setting [2]), “R”; in the experiment with T. pulmonis (setting [3]), “R”; in the experiment on T. pulmonis (setting [4]) it was “S”; in the experiment on M. abscessus, “S”; in the experiment on E. coli (setting [5]) it was “S”. Further, the “Sensitivity or resistance of the strain” value is listed as “S” in the experiment on E. coli (setting [6]); “R” in the experiment with M. chelonae; “R” in the experiment on M. fortuitum; “R” in the experiment with N. cyriacigeorgica (setting [7]); “R” in the experiment on N. cyriacigeorgica (setting [8]); “R” with S. aureus (S. aureus strain 282, isolation year 2005). The “Sensitivity or resistance of the strain” value is reported as “R” in the experiment with S. aureus (S. aureus strain 890, isolation year 2010); “S” in the experiment with S. epidermidis (S. epidermidis strain 188, isolation year 2009); “R” with S. epidermidis (S. epidermidis strain 982, isolation year 2006); “R” in the experiment on B. cereus (setting [9]); “R” in the experiment on B. cereus (setting [10]).

Consider `OC(Cn1cncn1)(Cn1cncn1)c1ccc(F)cc1F` [Fluconazole], for which the “Characteristics of the strains” value is “S” in the experiment with C. albicans; “S” in the experiment on C. parapsilopsis; “S” with C. glabrata; “S” with C. tropicalis; “S” with C. lusitaniae; “R” in the experiment on C. guilliermondii. The “Characteristics of the strains” value is recorded as “R” in the experiment with A. niger; “R” in the experiment on A. fumigatus; “R” in the experiment with A. flavus; “R” in the experiment on A. terreus; “S” with C. Krusei.

Take `C[C@@H](O)[C@H]1C(=O)N2C(C(=O)O)=C(SCCN=CN)C[C@H]12` [IMP, Imipenem]: the “Sensitivity or resistance of the strain” value is recorded as “R” in the experiment with N. carnea (setting [1]); “S” with N. carnea (setting [2]); “S” with T. pulmonis (setting [3]); “S” in the experiment with T. pulmonis (setting [4]); “R” in the experiment with M. abscessus; “R” in the experiment with A. baumannii (A. baumannii strain 300, isolation year 2001). The “Sensitivity or resistance of the strain” value in the experiment with A. baumannii (A. baumannii strain 1301, isolation year 2009) is “S”; in the experiment on E. coli (setting [5]) it was “S”; in the experiment with E. coli (setting [6]) it was “S”; in the experiment on M. chelonae it was “R”; with M. fortuitum, “R”; in the experiment on N. cyriacigeorgica (setting [7]) it was “R”. Also, in the experiment with N. cyriacigeorgica (setting [8]), the “Sensitivity or resistance of the strain” value is “S”.

Consider `CC(=O)N1CCN(c2ccc(OCC3COC(Cn4ccnc4)(c4ccc(Cl)cc4Cl)O3)cc2)CC1` (centres unmarked) [Ketoconazole], for which the “Characteristics of the strains” value in the experiment on C. albicans is on record as “S”; with C. parapsilopsis, “S”; in the experiment with C. glabrata it was “S”; with C. tropicalis, “S”; in the experiment with C. lusitaniae, “S”; with C. guilliermondii, “R”. In addition, the “Characteristics of the strains” value in the experiment with A. niger, with A. fumigatus, in the experiment with A. flavus, in the experiment with A. terreus and in the experiment with C. Krusei was “S” each time.

As to `CC(=O)NC[C@H]1CN(c2ccc(N3CCOCC3)c(F)c2)C(=O)O1` [LIN, Linezolid], the “Sensitivity or resistance of the strain” value in the experiment on N. carnea (setting [1]) is reported as “S”; in the experiment on N. carnea (setting [2]) it was “S”; in the experiment on T. pulmonis (setting [3]) it was “R”; in the experiment with T. pulmonis (setting [4]), “S”; in the experiment on M. abscessus, “S”; with M. chelonae, “R”. Further, the “Sensitivity or resistance of the strain” value in the experiment with M. fortuitum is reported as “R”; in the experiment on N. cyriacigeorgica (setting [7]), “S”; in the experiment on N. cyriacigeorgica (setting [8]), “S”; in the experiment with P. aeruginosa it was “S”.

With Penicillin, the “Sensitivity or resistance of the strain” value in the experiment on M. abscessus is on record as “R”; with E. coli (setting [5]), “R”; with E. coli (setting [6]) it was “R”; in the experiment on E. faecalis (E. faecalis strain 52, isolation year 2006), “R”; in the experiment on E. faecalis (E. faecalis strain 1052, isolation year 2008), “R”; in the experiment on E. faecium (E. faecium strain 26, isolation year 2012) it was “R”. Besides, the “Sensitivity or resistance of the strain” value is listed as “R” in the experiment with E. faecium (E. faecium strain 209, isolation year 2015); “R” in the experiment with M. chelonae; “R” in the experiment on M. fortuitum; “S” in the experiment with B. cereus (setting [9]); “S” with B. cereus (setting [10]).

(Values after patent US11008295B2, “Compounds having antiinfective, antitumoral and antifungal activity” (priority 2017, dated 2021).)
